# Key:
# [1] = biological target: T1, HiBit-BRG1 fusion protein (Homo sapiens, UniProt P51532); assay: HiBiT-BRG1 cell-based degradation assay (Nano-Glo HiBiT Lytic Detection, 24 h); settings: HeLa cell line expressing HiBit-BRG1 and LgBit; for Dmax: read-out: BRG1 HiBit Degradation Maximum (%); for DC50: read-out: BRMG1 HiBit Degradation IC50
# T1 construct: expressed in transfected cells
# Method in brief: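 Percent degradation derived from lytic HiBiT signal, normalized to DMSO-treated cells and to cells given 2 μM of a known BRM/BRG1 degrader. The HeLa line stably expressed HiBit-BRG1 and LgBit; treatment lasted 24 h at 5000 cells per well.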
# HiBit-BRM fusion protein = biological target: T2, HiBit-BRM fusion protein (Homo sapiens, UniProt P51531); assay: HiBiT-BRM cell-based degradation assay (Nano-Glo HiBiT Lytic Detection, 24 h); settings: HeLa cell line expressing HiBiT-BRM; for DC50: read-out: BRM HiBit Degradation IC50
# T2 construct: expressed in transfected cells
# T2 sequence (P51531 whole entry, the tested form may be a part): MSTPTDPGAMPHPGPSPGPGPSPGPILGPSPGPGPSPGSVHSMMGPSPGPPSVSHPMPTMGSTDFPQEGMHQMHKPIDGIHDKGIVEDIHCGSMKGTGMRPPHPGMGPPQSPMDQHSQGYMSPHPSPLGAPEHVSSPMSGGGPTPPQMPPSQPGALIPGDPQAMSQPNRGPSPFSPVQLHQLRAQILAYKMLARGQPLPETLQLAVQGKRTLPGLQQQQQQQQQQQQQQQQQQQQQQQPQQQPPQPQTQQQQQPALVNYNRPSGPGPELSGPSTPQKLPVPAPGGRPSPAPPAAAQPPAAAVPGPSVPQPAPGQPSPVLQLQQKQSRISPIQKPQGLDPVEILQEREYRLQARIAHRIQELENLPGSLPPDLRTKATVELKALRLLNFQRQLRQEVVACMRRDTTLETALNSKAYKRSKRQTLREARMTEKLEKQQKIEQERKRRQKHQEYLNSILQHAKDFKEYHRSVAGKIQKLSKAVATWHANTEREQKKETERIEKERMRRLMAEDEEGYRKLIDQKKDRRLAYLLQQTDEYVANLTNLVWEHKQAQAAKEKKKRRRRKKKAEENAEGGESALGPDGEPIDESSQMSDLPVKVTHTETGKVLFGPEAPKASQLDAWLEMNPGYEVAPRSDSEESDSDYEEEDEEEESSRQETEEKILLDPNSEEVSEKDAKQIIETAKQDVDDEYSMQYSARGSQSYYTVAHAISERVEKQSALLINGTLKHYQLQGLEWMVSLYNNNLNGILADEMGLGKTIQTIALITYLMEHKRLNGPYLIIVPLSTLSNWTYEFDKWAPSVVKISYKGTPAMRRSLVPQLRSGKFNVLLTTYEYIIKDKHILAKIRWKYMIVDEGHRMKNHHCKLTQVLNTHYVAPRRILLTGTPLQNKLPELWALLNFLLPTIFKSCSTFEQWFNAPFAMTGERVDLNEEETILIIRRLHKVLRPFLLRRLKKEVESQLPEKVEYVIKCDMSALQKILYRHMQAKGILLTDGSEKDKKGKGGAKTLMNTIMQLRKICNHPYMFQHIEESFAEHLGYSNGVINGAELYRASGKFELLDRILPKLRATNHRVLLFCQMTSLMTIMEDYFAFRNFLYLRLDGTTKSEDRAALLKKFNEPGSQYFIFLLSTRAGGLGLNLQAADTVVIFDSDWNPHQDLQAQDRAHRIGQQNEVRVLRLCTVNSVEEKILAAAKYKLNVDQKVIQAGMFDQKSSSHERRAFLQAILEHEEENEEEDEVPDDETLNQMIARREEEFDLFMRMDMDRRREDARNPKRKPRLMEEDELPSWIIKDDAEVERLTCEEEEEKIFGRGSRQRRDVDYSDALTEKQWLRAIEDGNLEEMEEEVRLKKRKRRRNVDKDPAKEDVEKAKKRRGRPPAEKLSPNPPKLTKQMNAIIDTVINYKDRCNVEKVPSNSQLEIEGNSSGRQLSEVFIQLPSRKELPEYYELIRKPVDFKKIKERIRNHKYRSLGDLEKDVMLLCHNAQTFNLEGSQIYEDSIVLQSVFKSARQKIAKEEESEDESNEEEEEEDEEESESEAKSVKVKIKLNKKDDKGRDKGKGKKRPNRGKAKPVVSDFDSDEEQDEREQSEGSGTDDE
# Method in brief: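 Percent BRM loss was derived from HiBiT luminescence relative to DMSO-treated cells and cells given 2 μM of a known BRM/BRG1 degrader. Treatment lasted 24 h in HiBiT-BRM HeLa cells, with a top final concentration of 30 μM.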
# T1 sequence (P51532 whole entry, the tested form may be a part): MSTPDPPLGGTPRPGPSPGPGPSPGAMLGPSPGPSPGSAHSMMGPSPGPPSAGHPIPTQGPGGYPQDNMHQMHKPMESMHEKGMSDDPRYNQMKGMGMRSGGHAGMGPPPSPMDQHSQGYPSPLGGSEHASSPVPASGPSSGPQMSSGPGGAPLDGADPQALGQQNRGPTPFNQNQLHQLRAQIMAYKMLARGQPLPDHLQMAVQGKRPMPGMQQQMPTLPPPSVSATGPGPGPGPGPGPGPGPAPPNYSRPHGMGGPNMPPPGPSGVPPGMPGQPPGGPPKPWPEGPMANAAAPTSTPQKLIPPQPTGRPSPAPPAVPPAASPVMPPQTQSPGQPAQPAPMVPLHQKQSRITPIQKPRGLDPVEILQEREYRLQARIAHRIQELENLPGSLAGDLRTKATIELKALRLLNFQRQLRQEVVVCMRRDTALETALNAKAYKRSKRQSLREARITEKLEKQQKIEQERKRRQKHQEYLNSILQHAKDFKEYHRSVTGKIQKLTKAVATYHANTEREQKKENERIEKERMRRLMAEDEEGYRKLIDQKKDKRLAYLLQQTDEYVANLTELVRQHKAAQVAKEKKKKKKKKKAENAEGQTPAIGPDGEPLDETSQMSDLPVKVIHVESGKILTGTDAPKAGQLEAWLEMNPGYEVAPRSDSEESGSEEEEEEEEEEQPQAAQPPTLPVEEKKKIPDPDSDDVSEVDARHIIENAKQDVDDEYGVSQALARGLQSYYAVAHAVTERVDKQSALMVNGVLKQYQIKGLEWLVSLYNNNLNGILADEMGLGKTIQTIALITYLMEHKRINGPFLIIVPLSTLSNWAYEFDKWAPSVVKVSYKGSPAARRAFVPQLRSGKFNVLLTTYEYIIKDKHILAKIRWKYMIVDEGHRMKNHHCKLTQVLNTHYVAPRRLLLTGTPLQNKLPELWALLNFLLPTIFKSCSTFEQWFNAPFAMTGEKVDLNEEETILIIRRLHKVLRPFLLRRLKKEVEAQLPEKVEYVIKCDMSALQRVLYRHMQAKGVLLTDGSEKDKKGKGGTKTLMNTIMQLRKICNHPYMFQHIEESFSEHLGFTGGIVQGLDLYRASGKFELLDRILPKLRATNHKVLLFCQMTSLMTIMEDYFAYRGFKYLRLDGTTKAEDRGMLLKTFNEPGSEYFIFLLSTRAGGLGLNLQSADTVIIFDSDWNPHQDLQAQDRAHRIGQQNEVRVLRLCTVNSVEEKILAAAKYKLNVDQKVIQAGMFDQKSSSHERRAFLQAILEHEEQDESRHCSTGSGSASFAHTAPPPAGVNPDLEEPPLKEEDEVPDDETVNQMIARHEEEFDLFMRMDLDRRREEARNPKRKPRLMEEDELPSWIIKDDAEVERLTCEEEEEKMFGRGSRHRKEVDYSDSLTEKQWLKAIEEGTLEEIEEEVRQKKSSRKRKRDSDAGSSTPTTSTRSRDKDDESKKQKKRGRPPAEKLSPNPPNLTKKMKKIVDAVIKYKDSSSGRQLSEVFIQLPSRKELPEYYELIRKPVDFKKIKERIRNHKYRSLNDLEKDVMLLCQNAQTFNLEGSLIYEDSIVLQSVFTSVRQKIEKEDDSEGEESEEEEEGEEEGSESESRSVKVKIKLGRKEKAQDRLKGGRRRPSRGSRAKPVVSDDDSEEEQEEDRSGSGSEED
Structure (SMILES),Dmax [1],BRM HiBit Degradation Maximum (%) (HiBit-BRM fusion protein),DC50 (HiBit-BRM fusion protein),DC50 [1]
"Cc1ncsc1-c1ccc([C@H](C)NC(=O)[C@@H]2C[C@@H](O)CN2C(=O)[C@@H](c2cc(C3CCN(C(=O)[C@H]4C[C@@]5(Cc6cc(-c7ccccc7O)nnc6N5)C4)CC3)no2)C(C)C)cc1 (racemic) [Compound 69, (2S,4R)-4-hydroxy-1-((R)-2-(3-(1-((1R,3s)-3′-(2-hydroxyphenyl)-5′,7′-dihydrospiro[cyclobutane-1,6′-pyrrolo[2,3-c]pyridazine]-3-carbonyl)piperidin-4-yl)isoxazol-5-yl)-3-methylbutanoyl)-N-((S)-1-(4-(4-methylthiazol-5-yl)phenyl)ethyl)pyrrolidine-2-carboxamide]",< 50%,A (“A” indicates maximum degradation ≥ 75%),> 10 nM,–
"Cc1ncsc1-c1ccc(CNC(=O)[C@@H]2C[C@@H](O)CN2C(=O)[C@@H](NC(=O)CCC(=O)N[C@@H]2CCc3[nH]c4nnc(-c5ccccc5O)cc4c3C2)C(C)(C)C)cc1 [Compound 171, N1-((S)-1-((2S,4R)-4-hydroxy-2-((4-(4-methylthiazol-5-yl)benzyl)carbamoyl)pyrrolidin-1-yl)-3,3-dimethyl-1-oxobutan-2-yl)-N4-((R)-3-(2-hydroxyphenyl)-6,7,8,9-tetrahydro-5H-pyridazino[3,4-b]indol-6-yl)succinamide]",< 50%,C (“C” indicates maximum degradation < 50%),–,–
"Cc1ncsc1-c1ccc([C@H](C)NC(=O)[C@@H]2C[C@@H](O)CN2C(=O)[C@@H](c2cc(OCCNC(=O)[C@H]3C[C@]4(Cc5cc(-c6ccccc6O)nnc5N4)C3)no2)C(C)C)cc1 (racemic) [Compound 71, (1S,3r)-N-(2-((5-((R)-1-((2S,4R)-4-hydroxy-2-(((S)-1-(4-(4-methylthiazol-5-yl)phenyl)ethyl)carbamoyl)pyrrolidin-1-yl)-3-methyl-1-oxobutan-2-yl)isoxazol-3-yl)oxy)ethyl)-3′-(2-hydroxyphenyl)-5′,7′-dihydrospiro[cyclobutane-1,6′-pyrrolo[2,3-c]pyridazine]-3-carboxamide]",< 50%,A (“A” indicates maximum degradation ≥ 75%),> 100 nM,–
"Cc1ncsc1-c1ccc([C@H](C)NC(=O)[C@@H]2C[C@@H](O)CN2C(=O)[C@@H](c2cc(N3CCN(Cc4cc5cc(-c6ccccc6O)nnc5[nH]4)CC3)no2)C(C)C)cc1 (racemic) [Compound 199, (2S,4R)-4-hydroxy-1-((R)-2-(3-(4-((3-(2-hydroxyphenyl)-7H-pyrrolo[2,3-c]pyridazin-6-yl)methyl)piperazin-1-yl)isoxazol-5-yl)-3-methylbutanoyl)-N-((S)-1-(4-(4-methylthiazol-5-yl)phenyl)ethyl)pyrrolidine-2-carboxamide]",< 50%,A (“A” indicates maximum degradation ≥ 75%),> 10 nM,–
"Cc1ncsc1-c1ccc(CNC(=O)[C@@H]2C[C@@H](O)CN2C(=O)[C@@H](NC(=O)CCCCCCC(=O)N2CC(c3c[nH]c4nnc(-c5ccccc5O)cc34)C2)C(C)(C)C)cc1 [Compound 45, (2S,4R)-4-hydroxy-1-((S)-2-(8-(3-(3-(2-hydroxyphenyl)-7H-pyrrolo[2,3-c]pyridazin-5-yl)azetidin-1-yl)-8-oxooctanamido)-3,3-dimethylbutanoyl)-N-(4-(4-methylthiazol-5-yl)benzyl)pyrrolidine-2-carboxamide]",< 50%,C (“C” indicates maximum degradation < 50%),–,–
"Cc1ncsc1-c1ccc(CNC(=O)[C@@H]2C[C@@H](O)CN2C(=O)[C@@H](NC(=O)CCCCC(=O)NC23CC(c4cc5cc(-c6ccccc6O)nnc5[nH]4)(C2)C3)C(C)(C)C)cc1 (racemic) [Compound 299, N1-((S)-1-((2S,4R)-4-hydroxy-2-((4-(4-methylthiazol-5-yl)benzyl)carbamoyl)pyrrolidin-1-yl)-3,3-dimethyl-1-oxobutan-2-yl)-N6-(3-(3-(2-hydroxyphenyl)-7H-pyrrolo[2,3-c]pyridazin-6-yl)bicyclo[1.1.1]pentan-1-yl)adipamide]",< 50%,B (“B” indicates maximum degradation ≥ 50%),> 1000 nM,–
"Cc1ncsc1-c1ccc([C@H](C)NC(=O)[C@@H]2C[C@@H](O)CN2C(=O)[C@@H](c2cc(OCCN3CCN(c4cc5cc(-c6ccccc6O)nnc5[nH]4)CC3)no2)C(C)C)cc1 (racemic) [Compound 235, (2S,4R)-4-hydroxy-1-((R)-2-(3-(2-(4-(3-(2-hydroxyphenyl)-7H-pyrrolo[2,3-c]pyridazin-6-yl)piperazin-1-yl)ethoxy)isoxazol-5-yl)-3-methylbutanoyl)-N-((S)-1-(4-(4-methylthiazol-5-yl)phenyl)ethyl)pyrrolidine-2-carboxamide]",> 75%,A (“A” indicates maximum degradation ≥ 75%),> 10 nM,> 10 nM
"Cc1ncsc1-c1ccc(CNC(=O)[C@@H]2C[C@@H](O)CN2C(=O)[C@@H](NC(=O)CCCC(=O)N2CC(c3cc4cc(-c5ccccc5O)nnc4[nH]3)C2)C(C)(C)C)cc1 [Compound 6, (2S,4R)-4-hydroxy-1-((S)-2-(5-(3-(3-(2-hydroxyphenyl)-7H-pyrrolo[2,3-c]pyridazin-6-yl)azetidin-1-yl)-5-oxopentanamido)-3,3-dimethylbutanoyl)-N-(4-(4-methylthiazol-5-yl)benzyl)pyrrolidine-2-carboxamide]",> 75%,B (“B” indicates maximum degradation ≥ 50%),> 1000 nM,> 1000 nM
"O=C1CCC(N2C(=O)c3ccc(N4CC5(CN(CCC(=O)N6CC(c7cc8cc(-c9ccccc9O)nnc8[nH]7)C6)C5)C4)cc3C2=O)C(=O)N1 (stereo not drawn) [Compound 34, 2-(2,6-dioxopiperidin-3-yl)-5-(6-(3-(3-(3-(2-hydroxyphenyl)-7H-pyrrolo[2,3-c]pyridazin-6-yl)azetidin-1-yl)-3-oxopropyl)-2,6-diazaspiro[3.3]heptan-2-yl)isoindoline-1,3-dione]",< 50%,C (“C” indicates maximum degradation < 50%),–,–
"Cc1ncsc1-c1ccc([C@H](C)NC(=O)[C@@H]2C[C@@H](O)CN2C(=O)[C@H](c2cc(OCCN3CC(c4cc5cc(-c6ccccc6O)nnc5[nH]4)C3)no2)C(C)C)cn1 (single isomer, unassigned) [Compound 218]",< 50%,C (“C” indicates maximum degradation < 50%),–,–
"Cc1ncsc1-c1ccc([C@H](C)NC(=O)[C@@H]2C[C@@H](O)CN2C(=O)[C@@H](c2cc(OCCN3CC(CCc4[nH]c5nnc(-c6ccccc6O)cc5c4C)C3)no2)C(C)C)cc1 (single isomer, unassigned) [Compound 198]",> 75%,A (“A” indicates maximum degradation ≥ 75%),> 100 nM,> 100 nM
"Cc1ncsc1-c1ccc([C@H](C)NC(=O)[C@@H]2C[C@@H](O)CN2C(=O)[C@@H](c2cc(OCCN3CC4(C3)CN(c3cc5cc(-c6ccccc6O)nnc5[nH]3)C4)no2)C(C)C)cc1 (racemic) [Compound 226, (2S,4R)-4-hydroxy-1-[(2R)-2-[3-(2-{6-[3-(2-hydroxyphenyl)-7H-pyrrolo[2,3-c]pyridazin-6-yl]-2,6-diazaspiro[3.3]heptan-2-yl}ethoxy)-1,2-oxazol-5-yl]-3-methylbutanoyl]-N-[(1S)-1-[4-(4-methyl-1,3-thiazol-5-yl)phenyl]ethyl]pyrrolidine-2-carboxamide]",> 75%,A (“A” indicates maximum degradation ≥ 75%),> 100 nM,> 100 nM
"Cc1ncsc1-c1ccc([C@H](C)NC(=O)[C@@H]2C[C@@H](O)CN2C(=O)[C@@H](c2cc(C3CN(C(=O)[C@H]4CCc5[nH]c6nnc(-c7ccccc7O)cc6c5C4)C3)no2)C(C)C)cc1 (relative stereo) [Compound 157, (2S,4R)-4-hydroxy-1-[(2R*)-2-(3-{1-[(6R**)-3-(2-hydroxyphenyl)-5H,6H,7H,8H,9H-pyridazino[3,4-b]indole-6-carbonyl]azetidin-3-yl}-1,2-oxazol-5-yl)-3-methylbutanoyl]-N-[(1S)-1-[4-(4-methyl-1,3-thiazol-5-yl)phenyl]ethyl]pyrrolidine-2-carboxamide]",> 75%,A (“A” indicates maximum degradation ≥ 75%),> 100 nM,> 100 nM
"Cc1ncsc1-c1ccc(CNC(=O)[C@@H]2C[C@@H](O)CN2C(=O)[C@@H](NC(=O)CCCCCCCCCCCCC(=O)N2CC(c3c[nH]c4nnc(-c5ccccc5O)cc34)C2)C(C)(C)C)cc1 [Compound 44, (2S,4R)-4-hydroxy-1-((S)-2-(14-(3-(3-(2-hydroxyphenyl)-7H-pyrrolo[2,3-c]pyridazin-5-yl)azetidin-1-yl)-14-oxotetradecanamido)-3,3-dimethylbutanoyl)-N-(4-(4-methylthiazol-5-yl)benzyl)pyrrolidine-2-carboxamide]",< 50%,C (“C” indicates maximum degradation < 50%),–,–
"Cc1ncsc1-c1ccc([C@H](C)NC(=O)[C@@H]2C[C@@H](O)CN2C(=O)[C@@H](c2cc(OCCN3CC4(CNc5nnc(-c6ccccc6O)cc54)C3)no2)C(C)C)cc1 (racemic) [Compound 177, (2S,4R)-4-hydroxy-1-((R)-2-(3-(2-(3′-(2-hydroxyphenyl)-6′,7′-dihydrospiro[azetidine-3,5′-pyrrolo[2,3-c]pyridazin]-1-yl)ethoxy)isoxazol-5-yl)-3-methylbutanoyl)-N-((S)-1-(4-(4-methylthiazol-5-yl)phenyl)ethyl)pyrrolidine-2-carboxamide]",< 50%,B (“B” indicates maximum degradation ≥ 50%),> 1000 nM,–
